# Like-named read-outs stand apart in the source and are kept apart here.
# Assays:
# S. aureus RN4220 = assay: microbe, parasite or virus in culture; format: cell-based; settings: for MIC: Staphylococcus aureus
# S. aureus [1] = assay: microbe, parasite or virus in culture; format: cell-based; settings: for MIC: Staphylococcus aureus
# S. aureus [2] = format: cell-based
# S. aureus [3] = assay: microbe, parasite or virus in culture; format: cell-based; settings: Staphylococcus aureus
# [4] = tested on: staphylococci and streptococci; assay: organism not typed; format: cell-based
# S. aureus mutants = assay: microbe, parasite or virus in culture; format: cell-based; settings: Staphylococcus aureus, ATCC43300
# S. aureus MetS = S. aureus MetS (Staphylococcus aureus, UniProt P67579); assay: biochemical
# Chain of S. aureus MetS (P67579 whole entry): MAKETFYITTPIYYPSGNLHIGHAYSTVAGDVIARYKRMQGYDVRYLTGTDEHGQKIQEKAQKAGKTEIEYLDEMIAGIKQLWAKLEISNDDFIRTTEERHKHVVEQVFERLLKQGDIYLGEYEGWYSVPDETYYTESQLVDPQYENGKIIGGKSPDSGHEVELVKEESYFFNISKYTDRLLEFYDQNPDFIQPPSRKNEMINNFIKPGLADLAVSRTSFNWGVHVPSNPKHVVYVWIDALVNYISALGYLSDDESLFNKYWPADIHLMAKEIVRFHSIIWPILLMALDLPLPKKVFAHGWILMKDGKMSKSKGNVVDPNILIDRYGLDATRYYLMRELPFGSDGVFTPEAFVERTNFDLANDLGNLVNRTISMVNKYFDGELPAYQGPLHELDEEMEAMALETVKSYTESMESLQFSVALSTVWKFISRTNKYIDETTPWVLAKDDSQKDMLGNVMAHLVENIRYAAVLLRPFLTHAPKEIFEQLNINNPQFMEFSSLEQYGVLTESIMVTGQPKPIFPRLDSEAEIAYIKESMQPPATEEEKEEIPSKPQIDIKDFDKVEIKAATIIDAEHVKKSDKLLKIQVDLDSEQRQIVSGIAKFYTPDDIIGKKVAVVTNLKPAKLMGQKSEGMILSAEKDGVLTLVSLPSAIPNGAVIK
# H influenzae MetG = H influenzae MetG (Haemophilus influenzae, UniProt P43828); assay: biochemical
# Chain of H influenzae MetG (P43828 whole entry): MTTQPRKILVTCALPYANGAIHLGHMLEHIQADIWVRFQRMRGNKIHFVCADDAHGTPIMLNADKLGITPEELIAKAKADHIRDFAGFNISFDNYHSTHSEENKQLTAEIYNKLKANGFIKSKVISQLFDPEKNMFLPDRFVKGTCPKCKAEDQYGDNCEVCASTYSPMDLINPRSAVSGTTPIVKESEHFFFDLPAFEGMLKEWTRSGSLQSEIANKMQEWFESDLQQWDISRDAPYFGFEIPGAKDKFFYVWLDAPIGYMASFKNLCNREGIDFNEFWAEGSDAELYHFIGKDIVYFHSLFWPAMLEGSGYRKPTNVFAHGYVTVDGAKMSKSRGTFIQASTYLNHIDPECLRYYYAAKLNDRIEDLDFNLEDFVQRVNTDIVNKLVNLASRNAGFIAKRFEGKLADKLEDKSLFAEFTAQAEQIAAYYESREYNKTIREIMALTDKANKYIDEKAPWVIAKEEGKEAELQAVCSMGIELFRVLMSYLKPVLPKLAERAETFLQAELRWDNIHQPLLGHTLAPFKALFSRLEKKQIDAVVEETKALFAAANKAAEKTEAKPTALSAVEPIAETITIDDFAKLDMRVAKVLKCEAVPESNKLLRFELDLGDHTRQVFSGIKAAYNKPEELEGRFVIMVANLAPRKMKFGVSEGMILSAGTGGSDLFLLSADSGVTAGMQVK
# E. coli MetG = E. coli MetG (Escherichia coli, UniProt P00959); assay: biochemical
# Chain of E. coli MetG (P00959 whole entry, looked up): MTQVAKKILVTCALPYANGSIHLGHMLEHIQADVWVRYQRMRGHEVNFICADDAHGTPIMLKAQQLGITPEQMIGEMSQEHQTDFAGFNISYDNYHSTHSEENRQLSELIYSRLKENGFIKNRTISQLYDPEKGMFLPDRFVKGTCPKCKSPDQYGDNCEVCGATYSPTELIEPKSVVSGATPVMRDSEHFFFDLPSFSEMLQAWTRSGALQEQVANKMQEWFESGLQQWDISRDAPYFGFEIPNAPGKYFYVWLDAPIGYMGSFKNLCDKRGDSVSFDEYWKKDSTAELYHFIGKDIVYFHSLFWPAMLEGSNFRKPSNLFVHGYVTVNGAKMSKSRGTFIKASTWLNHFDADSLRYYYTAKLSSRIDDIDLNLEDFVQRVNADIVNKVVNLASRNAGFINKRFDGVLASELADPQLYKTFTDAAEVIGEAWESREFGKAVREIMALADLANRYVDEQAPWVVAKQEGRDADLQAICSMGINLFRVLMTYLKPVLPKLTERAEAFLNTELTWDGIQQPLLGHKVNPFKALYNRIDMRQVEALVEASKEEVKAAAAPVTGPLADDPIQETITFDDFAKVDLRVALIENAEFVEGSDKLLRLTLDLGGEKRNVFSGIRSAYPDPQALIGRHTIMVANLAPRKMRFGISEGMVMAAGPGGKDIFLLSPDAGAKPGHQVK
# S. pneumoniae MetS2 = S. pneumoniae MetS2 (Streptococcus pneumoniae, UniProt A2MSJ4); assay: biochemical
# Chain of S. pneumoniae MetS2 (A2MSJ4 1-545): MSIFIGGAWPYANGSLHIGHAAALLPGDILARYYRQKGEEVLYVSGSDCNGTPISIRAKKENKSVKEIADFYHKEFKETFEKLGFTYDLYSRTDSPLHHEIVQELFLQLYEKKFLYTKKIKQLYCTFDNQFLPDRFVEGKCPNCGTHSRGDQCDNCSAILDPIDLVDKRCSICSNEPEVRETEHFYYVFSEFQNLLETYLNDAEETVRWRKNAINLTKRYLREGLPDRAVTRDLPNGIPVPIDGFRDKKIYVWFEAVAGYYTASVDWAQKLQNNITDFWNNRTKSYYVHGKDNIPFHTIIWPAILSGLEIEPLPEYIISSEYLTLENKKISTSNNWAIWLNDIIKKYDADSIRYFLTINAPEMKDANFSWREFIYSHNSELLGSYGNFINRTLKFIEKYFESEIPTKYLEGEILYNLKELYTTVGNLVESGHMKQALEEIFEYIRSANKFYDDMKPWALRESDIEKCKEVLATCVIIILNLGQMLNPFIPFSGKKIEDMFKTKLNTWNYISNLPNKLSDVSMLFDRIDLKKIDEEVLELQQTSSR
# staphylococci = settings: cited from earlier work
# [5] = RN4220, pYH4 vector control, +aTc inducer
# [6] = RN4220, pYH4 vector control, −aTc inducer
# [7] = 1079077 (MRSA), 10^10 CFU, five days
# [8] = ATCC 29213 (MSSA), 10^10 CFU, five days
# [9] = ATCC 43300 (MRSA), 10^10 CFU, five days
# [10] = LZ10 (MRSA), 10^10 CFU, five days
# [11] = S. aureus, including MSSA and MRSA strains
# [12] = ATCC 29213 / MSSA, read-out: MIC After 20 passages, S. aureus ATCC29213, MSSA, MupS
# [13] = ATCC 29213 / MSSA, read-out: MIC Initial, S. aureus ATCC29213, MSSA, MupS
# [14] = ATCC 43300 / MRSA, read-out: MIC After 20 passages, S. aureus ATCC43300, MRSA, MupS
# [15] = MRSA / NRS 103, read-out: MIC After 20 passages, S. aureus NRS103, MRSA, MupS
# [16] = MRSA / NRS 103, read-out: MIC Initial, S. aureus NRS103, MRSA, MupS
# [17] = MRSA, read-out: MIC After 20 passages, S. aureus 10-420, MRSA, HL-MupR
# [18] = MRSA, read-out: MIC After 20 passages, S. aureus 25-670, MRSA, HL-MupR
# [19] = MRSA, read-out: MIC After 20 passages, S. aureus 31-1334, MRSA, LL-MupR
# [20] = MRSA, read-out: MIC After 20 passages, S. aureus 87-2797, MRSA, HL-MupR
# [21] = MRSA, read-out: MIC After 20 passages, S. aureus 1079077, MRSA, MupS
# [22] = MRSA, read-out: MIC After 20 passages, S. aureus LZ1, MRSA, HL-MupR
# [23] = MRSA, read-out: MIC After 20 passages, S. aureus LZ6, MRSA, HL-MupR
# [24] = MRSA, read-out: MIC After 20 passages, S. aureus LZ10, MRSA, MupS
# [25] = MRSA, read-out: MIC Initial, S. aureus 10-420, MRSA, HL-MupR
# [26] = MRSA, read-out: MIC Initial, S. aureus 25-670, MRSA, HL-MupR
# [27] = MRSA, read-out: MIC Initial, S. aureus 31-1334, MRSA, LL-MupR
# [28] = MRSA, read-out: MIC Initial, S. aureus 87-2797, MRSA, HL-MupR
# [29] = MRSA, read-out: MIC Initial, S. aureus 1079077, MRSA, MupS
# [30] = MRSA, read-out: MIC Initial, S. aureus LZ1, MRSA, HL-MupR
# [31] = MRSA, read-out: MIC Initial, S. aureus LZ6, MRSA, HL-MupR
# [32] = MRSA, read-out: MIC Initial, S. aureus LZ10, MRSA, MupS
# [33] = MSSA / NRS 107, read-out: MIC After 20 passages, S. aureus NRS107, MSSA, HL-MupR
# [34] = MSSA / NRS 107, read-out: MIC Initial, S. aureus NRS107, MSSA, HL-MupR
# [35] = MSSA, read-out: MIC After 20 passages, S. aureus 1079101, MSSA, HL-MupR
# [36] = MSSA, read-out: MIC Initial, S. aureus 1079101, MSSA, HL-MupR
smiles,measurement,setting,value
"C=C(F)c1sc(CNCCCNc2cc(=O)c3ccccc3[nH]2)c(C)c1Br [Compound 1, N-(4-bromo-5-(1-fluorovinyl)-3-methylthiophen-2-ylmethyl)-N′-(1H-quinolin-4-one)propane-1,3-diamine]",shift in the MIC upon induction of MRS expression,S. aureus RN4220; RN4220 (pYH4-MRS),8 fold
same,MIC,"S. aureus RN4220; RN4220, pYH4-MRS, +aTc inducer",1 µg/mL
same,MIC,"S. aureus RN4220; RN4220, pYH4-MRS, −aTc inducer",0.12 µg/mL
same,MIC,S. aureus RN4220; [5],0.008 µg/mL
same,MIC,S. aureus RN4220; [6],0.008 µg/mL
same,initial MIC range,S. aureus [1],0.03 to 0.5 µg/mL
same,MIC,S. aureus [1],0.5 µg/mL
same,MIC,S. aureus [1]; ATCC 29213 / MSSA,0.03 µg/mL
same,MIC,S. aureus [1]; ATCC 43300 / MRSA,0.06 µg/mL
same,MPC,S. aureus [2]; [7],32 µg/mL
same,MPC,S. aureus [2]; [8],32 µg/mL
same,MPC,S. aureus [2]; [9],32 µg/mL
same,MPC,S. aureus [2]; [10],32 µg/mL
same,MPC,S. aureus [2]; [11],32 µg/mL
same,MIC,S. aureus [3]; [12],4 µg/mL
same,MIC,S. aureus [3]; [13],0.06 µg/mL
same,MIC,S. aureus [3]; [14],1 µg/mL
same,MIC,S. aureus [3]; [15],1 µg/mL
same,MIC,S. aureus [3]; [16],0.12 µg/mL
same,MIC,S. aureus [3]; [17],8 µg/mL
same,MIC,S. aureus [3]; [18],8 µg/mL
same,MIC,S. aureus [3]; [19],8 µg/mL
same,MIC,S. aureus [3]; [20],16 µg/mL
same,MIC,S. aureus [3]; [21],16 µg/mL
same,MIC,S. aureus [3]; [22],0.06 µg/mL
same,MIC,S. aureus [3]; [23],2 µg/mL
same,MIC,S. aureus [3]; [24],0.5 µg/mL
same,MIC,S. aureus [3]; [25],0.06 µg/mL
same,MIC,S. aureus [3]; [26],0.06 µg/mL
same,MIC,S. aureus [3]; [27],0.03 µg/mL
same,MIC,S. aureus [3]; [28],0.03 µg/mL
same,MIC,S. aureus [3]; [29],0.25 µg/mL
same,MIC,S. aureus [3]; [30],0.06 µg/mL
same,MIC,S. aureus [3]; [31],0.06 µg/mL
same,MIC,S. aureus [3]; [32],0.03 µg/mL
same,MIC,S. aureus [3]; [33],0.5 µg/mL
same,MIC,S. aureus [3]; [34],0.015 µg/mL
same,MIC,S. aureus [3]; [35],16 µg/mL
same,MIC,S. aureus [3]; [36],0.06 µg/mL
same,MIC range after twenty serial passages,[4]; strains of Table 4,0.06 to 16 µg/mL
same,MIC initial range,"[4]; strains of Table 4, before passages",0.015 to 0.06 µg/mL
same,MIC,S. aureus mutants,2 µg/mL
same,IC50,S. aureus MetS,< 1.9 nM
same,IC50,H influenzae MetG,25 nM
same,IC50,E. coli MetG,307 nM
same,IC50,S. pneumoniae MetS2,> 500 nM
CN[C@H](CC(C)C)C(=O)N[C@H]1C(=O)N[C@@H](CC(N)=O)C(=O)N[C@H]2C(=O)N[C@H]3C(=O)N[C@H](C(=O)N[C@H](C(=O)O)c4cc(O)cc(O)c4-c4cc3ccc4O)[C@H](O)c3ccc(c(Cl)c3)Oc3cc2cc(c3O[C@@H]2O[C@H](CO)[C@@H](O)[C@H](O)[C@H]2O[C@H]2C[C@](C)(N)[C@H](O)[C@H](C)O2)Oc2ccc(cc2Cl)[C@H]1O [Vancomycin],MIC change upon MRS overexpression,S. aureus RN4220,remained unchanged
same,MIC,"S. aureus RN4220; RN4220, pYH4-MRS, +aTc inducer",0.5 µg/mL
same,MIC,"S. aureus RN4220; RN4220, pYH4-MRS, −aTc inducer",0.5 µg/mL
same,MIC,S. aureus RN4220; [5],1 µg/mL
same,MIC,S. aureus RN4220; [6],1 µg/mL
CO[C@@H]1[C@@H](OC(N)=O)[C@@H](O)[C@H](Oc2ccc3c(O)c(NC(=O)c4ccc(O)c(CC=C(C)C)c4)c(=O)oc3c2C)OC1(C)C [Novobiocin],MIC change upon MRS overexpression,S. aureus RN4220,remained unchanged
same,MIC,"S. aureus RN4220; RN4220, pYH4-MRS, +aTc inducer",0.25 µg/mL
same,MIC,"S. aureus RN4220; RN4220, pYH4-MRS, −aTc inducer",0.25 µg/mL
same,MIC,S. aureus RN4220; [5],0.25 µg/mL
same,MIC,S. aureus RN4220; [6],0.25 µg/mL
C/C(=C\C(=O)OCCCCCCCCC(=O)O)C[C@@H]1OC[C@H](C[C@@H]2O[C@H]2[C@@H](C)[C@H](C)O)[C@@H](O)[C@H]1O [Mupirocin],MIC change upon MRS overexpression,S. aureus RN4220,remained unchanged
same,MIC,"S. aureus RN4220; RN4220, pYH4-MRS, +aTc inducer",0.06 µg/mL
same,MIC,"S. aureus RN4220; RN4220, pYH4-MRS, −aTc inducer",0.06 µg/mL
same,MIC,S. aureus RN4220; [5],0.06 µg/mL
same,MIC,S. aureus RN4220; [6],0.06 µg/mL
same,MIC,S. aureus [1]; ATCC 29213 / MSSA,0.12 µg/mL
same,MIC,S. aureus [1]; ATCC 43300 / MRSA,0.12 µg/mL
same,MPC,S. aureus [2]; [7],>32 µg/mL
same,MPC,S. aureus [2]; [8],32 µg/mL
same,MPC,S. aureus [2]; [9],32 µg/mL
same,MPC,S. aureus [2]; [10],>32 µg/mL
same,MPC,S. aureus [2]; [11],≥ 32 µg/mL
same,MIC,S. aureus [3]; [12],0.5 µg/mL
same,MIC,S. aureus [3]; [13],0.06 µg/mL
same,MIC,S. aureus [3]; [14],8 µg/mL
same,MIC,"S. aureus [3]; ATCC 43300 / MRSA, read-out: MIC Initial, S. aureus ATCC43300, MRSA, MupS",0.06 µg/mL
same,MIC,S. aureus [3]; [15],1 µg/mL
same,MIC,S. aureus [3]; [16],0.25 µg/mL
same,MIC,S. aureus [3]; [17],4100 µg/mL
same,MIC,S. aureus [3]; [18],4100 µg/mL
same,MIC,S. aureus [3]; [19],128 µg/mL
same,MIC,S. aureus [3]; [20],4100 µg/mL
same,MIC,S. aureus [3]; [21],1 µg/mL
same,MIC,S. aureus [3]; [22],4100 µg/mL
same,MIC,S. aureus [3]; [23],4100 µg/mL
same,MIC,S. aureus [3]; [24],2 µg/mL
same,MIC,S. aureus [3]; [25],4100 µg/mL
same,MIC,S. aureus [3]; [26],2050 µg/mL
same,MIC,S. aureus [3]; [27],32 µg/mL
same,MIC,S. aureus [3]; [28],2050 µg/mL
same,MIC,S. aureus [3]; [29],0.5 µg/mL
same,MIC,S. aureus [3]; [30],4100 µg/mL
same,MIC,S. aureus [3]; [31],4100 µg/mL
same,MIC,S. aureus [3]; [32],0.25 µg/mL
same,MIC,S. aureus [3]; [33],4100 µg/mL
same,MIC,S. aureus [3]; [34],4100 µg/mL
same,MIC,S. aureus [3]; [35],4100 µg/mL
same,MIC,S. aureus [3]; [36],4100 µg/mL
same,MIC range after 20 passages,[4]; mupirocin-susceptible strains,0.5 to 8 µg/mL
same,MIC range initial,[4]; mupirocin-susceptible strains,0.06 to 0.5 µg/mL
same,MIC,[4]; read-out: MIC after 20 passages,128 µg/mL
same,MIC,[4]; read-out: MIC initial,32 µg/mL
same,MIC,staphylococci; high-level mupirocin resistance,> 256 µg/mL
same,MIC,staphylococci; low-level mupirocin resistance,8 to 256 µg/mL

# Source: patent US20080138835A1 (priority 2004, published 2008)
